Experimental data reported in patent US20100016598A1 (WYETH, priority 2008, published 2010).

Assays:
[1] = target: T1, alpha7 nicotinic acetylcholine receptor (Rattus norvegicus, UniProt Q05941); assay: functional FLIPR assay, alpha7 nAChR stably expressed in GH4C1 cells; type: cell-based; settings: GH4C1 cell line expressing the alpha7 nAChR; concentration-response curves; read-out: Alpha 7 EC50
T1 construct: expressed in transfected cells

[2] = target: T2, alpha3 (ganglionic) nACh receptors (Homo sapiens, UniProt P30926+P32297); assay: calcium-monitoring FLIPR selectivity assay using the native SH-SY5Y cell line; type: cell-based; settings: read-out: Alpha 3 EC50
T2 construct: using the native SH-SY5Y cell line; endogenous in cells; host or cells: SH-SY5Y
T2 sequence (P32297 32-505): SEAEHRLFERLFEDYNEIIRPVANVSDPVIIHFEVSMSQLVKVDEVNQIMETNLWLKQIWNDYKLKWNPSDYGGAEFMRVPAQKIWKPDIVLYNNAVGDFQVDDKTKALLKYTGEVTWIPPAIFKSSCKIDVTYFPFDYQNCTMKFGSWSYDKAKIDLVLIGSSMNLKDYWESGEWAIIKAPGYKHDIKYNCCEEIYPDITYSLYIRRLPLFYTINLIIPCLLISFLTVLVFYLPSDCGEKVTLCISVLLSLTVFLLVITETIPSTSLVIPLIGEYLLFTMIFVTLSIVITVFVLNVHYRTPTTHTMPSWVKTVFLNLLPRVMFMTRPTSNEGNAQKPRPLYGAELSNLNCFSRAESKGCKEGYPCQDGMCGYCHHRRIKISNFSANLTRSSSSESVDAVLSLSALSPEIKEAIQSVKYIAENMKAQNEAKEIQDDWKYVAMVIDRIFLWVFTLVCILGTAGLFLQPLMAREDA
T2 sequence (P30926 22-498): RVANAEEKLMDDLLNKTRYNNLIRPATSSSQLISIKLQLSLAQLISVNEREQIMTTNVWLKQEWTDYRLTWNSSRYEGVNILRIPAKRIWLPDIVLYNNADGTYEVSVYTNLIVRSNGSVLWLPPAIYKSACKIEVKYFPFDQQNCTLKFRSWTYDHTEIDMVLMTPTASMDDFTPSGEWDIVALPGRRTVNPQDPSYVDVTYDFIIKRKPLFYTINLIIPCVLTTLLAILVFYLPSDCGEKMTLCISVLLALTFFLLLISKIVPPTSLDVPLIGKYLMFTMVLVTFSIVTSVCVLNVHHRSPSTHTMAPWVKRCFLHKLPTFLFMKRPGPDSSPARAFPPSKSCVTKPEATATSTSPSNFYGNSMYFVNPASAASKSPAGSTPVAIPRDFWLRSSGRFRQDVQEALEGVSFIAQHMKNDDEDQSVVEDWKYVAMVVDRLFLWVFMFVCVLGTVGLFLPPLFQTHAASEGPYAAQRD
Description: Functional FLIPR assays were developed in order to test the selectivity of compounds against the alpha1 (muscular) and alpha3 (ganglionic) nACh receptors and the structurally related 5-HT3 receptor. […] In order to test selectivity against the 5-HT3 receptor, a recombinant cell line was constructed expressing the human 5-HT3A receptor in HEK 293 cells and a calcium-monitoring FLIPR assay employed.

T1 sequence (Q05941 23-502): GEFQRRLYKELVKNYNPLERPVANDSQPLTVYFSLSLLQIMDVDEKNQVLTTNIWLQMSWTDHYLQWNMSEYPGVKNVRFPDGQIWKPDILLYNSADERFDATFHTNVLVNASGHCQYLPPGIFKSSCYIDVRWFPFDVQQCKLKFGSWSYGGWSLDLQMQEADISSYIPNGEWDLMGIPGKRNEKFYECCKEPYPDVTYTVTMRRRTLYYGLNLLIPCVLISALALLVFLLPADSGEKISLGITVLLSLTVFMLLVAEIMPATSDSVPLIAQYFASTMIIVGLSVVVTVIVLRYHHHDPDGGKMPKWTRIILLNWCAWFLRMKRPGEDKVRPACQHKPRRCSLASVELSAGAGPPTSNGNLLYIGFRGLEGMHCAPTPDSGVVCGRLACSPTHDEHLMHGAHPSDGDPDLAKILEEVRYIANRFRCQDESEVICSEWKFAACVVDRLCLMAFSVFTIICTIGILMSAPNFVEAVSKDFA

EC50 [1]: 60 nM | EC50 [2]: 5670 nM
SMILES: COc1ncccc1-c1ccc(NC(=O)NCCCCN2CCCCC2)cc1
